In patent publication US20180105548A1, “A novel compound (KS-513) isolated from Pseudolysimachion rotundum var. subintegrum, the composition comprising the same preventing or treating allergic disease, inflammatory disease, asthma or chronic obstructive pulmonary disease and the use thereof” (priority 2015, published 2018):

Key:
iNOS = iNOS protein expression in RAW264.7 cell induced by LPS (Western blot); format: cell-based, mouse; conditions: 2.5, 5, 10 and 20 μM, LPS 1 μg/mL, 12 hours, FIG. 3A
Experimental: The expressed level of iNOS in RAW264.7 cell induced by LPS (1 μg/ml) was determined by using Western blot analysis. RAW264.7 cell was inoculated into […] in the concentration of 1×10^6 cell/well to incubate for 12 hours. Various concentration of KS-513 compound (2.5, 5, 10 and 20 μM) was pre-treated therewith and 1 μg/mL of LPS (L6529, Sigma) was added thereto to incubate for 12 hours.
To extract protein, after washing the cell with ice-cold PBS three times, lysis buffer (50 mM Tris HCl (pH 8.0), 5 mM EDTA, 150 mM NaCl, 1% NP-40, 0.1% SDS, 1 mM PMSF, and protease inhibitor cocktail tablet (Roche, Germany, 11697498001) was added to the cell, reacted at 4° C. for 30 mins and centrifuged for 10 mins at the speed of 12,000 rpm to collect the supernatant.
The equivalent amount of the protein was isolated by SDS-PAGE and the protein was transferred to nitrocellulose membrane (BR162-0145, Bio-Rad). […] The product was reacted with ECL system and the amount of protein was determined by imaging analysis apparatus (LAS-4000, Fujifilm).
The quantitative determination of protein was performed by determining the absorbance using assay kit (Bradford protein assay kit, Thermo) at 595 nm and the result was shown in FIG. 3A.

IL-1beta = experiment: mRNA expression of IL-1beta in RAW264.7 cell line induced by LPS (real-time PCR); format: cell-based, mouse; conditions: for IL-1beta mRNA expression, Fold (value compared with a negative group) / IL-1beta mRNA expression, Inhibition ratio (IR) compared with LPS treatment group: LPS 1 μg/ml, 12 hours
Experimental: (§1) In order to determine the inhibitory effect on the mRNA expression of pro-inflammatory medicated enzyme such as iNOS or COX-2, and pro-inflammatory medicated cytokines such as IL-1beta, IL-6, TNF-alpha in RAW264.7 cell line induced by LPS, following test using by real-time PCR (real-time polymerase chain reaction, quantitative real time polymerase chain reaction, qPCR) was performed according to the method disclosed in the literature (Livak, K. J., Schimittgen T. D., 2001, Analysis of relative gene expression data using real-time quantitiative PCR and the 2 (-Delta Delta C(T) method, Methods 25, p 402-408):
(§2) RAW264.7 cell was inoculated into 6-well-plates in the concentration of 1×10^6 cell/well to incubate for 12 hours. Various concentration of KS-513 compound (2.5, 5, 10 and 20 μM) was pre-treated therewith and 1 μg/mL of LPS (L6529, Sigma) was added thereto to incubate for 12 hours.
(§3) To extract total RNA, RNA was extracted using by Triazol B (invitrogen) and cDNA was synthesized using by Omniscript RT kit (205113, Qiagen, Gmbh, Hilden, Germany) after the quantification. The synthesized cDNA was mixed with its template and the primers shown in Table 3 (SEQ.I.D. 1-14), performed to denaturation at 94° C. for 5 mins using by PCR mix (PCR master Mix, Bioneer, Korea), and reacted as follows: 1 cycle for pre-denaturation; at 95° C. for 30 sec, 60° C. for 45 sec, 72° C. for 45 sec, 30 cycles for denaturation; 10 mins at 72° C., 1cycle for final extension. (FIG. 2)

[1] = Cytotoxicity test (CCK-8) in RAW264.7 cell; format: cell-based, mouse; conditions: mouse, RAW264.7 macrophage cells
Experimental: (§4) RAW264.7 cell (TIB-71, ATCC), a mouse macrophage cell, was suspended in 5% FBS (Fetal Bovine Serum)-supplemented DMEM (Dulbecco's Modified Eagle Medium, Gibco) medium in a concentration of 1×10^5 cells/ml, and 100 μL of the suspension was inoculated into 96 well plates to adhere cell to the plate for 4 hours. Various concentrations of test sample (KS 513 compound) were treated therewith and cultured for 24 hours. 10 μL of CCK-8 solution was mixed therewith according to the manufacture's manual kit (Dojindo Co. Ltd), reacted from 30 mins to 4 hours, and the absorbance of the solution was determined at […]. The cell viability was calculated according to following Math formulae 1 based on negative control group treated with 0.2% DMSO and the result was shown in Table 2.
(§5) Cell viability (%)=OD 570 nm (test group)/OD 570 nm (negative control group)×100 Math formulae 1

RAW264.7 cell = experiment: Cytotoxicity test (CCK-8) in RAW264.7 cell; format: cell-based, mouse; conditions: up to 80 μM
Experimental: as §4, §5

[2] = Acute toxicity test of oral administration in rat; conditions: Sprague-Dawley, in vivo
Experimental: The acute toxicity test was performed by administrating inventive compound to 6-weeks aged SPF Sprague-Dawley rats.
After administrating the extract or compounds, all the clinical changes i.e., mortality, clinical signs, body weight changes was observed and blood test such as haematological test and hematological biochemistry test was performed. The abnormal changes of abdominal organ and thoracic organ were observed after autopsy.

TNF-alpha = experiment: mRNA expression of TNF-alpha in RAW264.7 cell line induced by LPS (real-time PCR); format: cell-based, mouse; conditions: for TNF-alpha mRNA expression, Fold (value compared with a negative group) / TNF-alpha mRNA expression, Inhibition ratio (IR) compared with LPS treatment group: LPS 1 μg/ml, 12 hours
Experimental: as §1, §2, §3

[3] = various concentration, compared with control group treated with LPS (100%)

## CO[C@@H]1C[C@H]2[C@H](OC(=O)c3ccc(O)cc3)[C@@H]3O[C@]3(CO)[C@H]2[C@H](O[C@@H]2O[C@H](CO)[C@@H](O)C(O)[C@H]2O)O1 (stereo partly drawn) [KS-513, (1aS, 1bS,2S,4S,5aR,6S,6aS)-1a-(hydroxymethyl)-4-methoxy-2-(((2S,3R,5S,6R)-3,4,5-trihydroxy-6-(hydroxymethyl)tetrahydro-2H-pyran-2-yl)oxy)octahydrooxireno[2′,3′:4,5]cyclopenta[1,2-c]pyran-6-yl 4-hydroxybenzoate]
iNOS
  expressed level of iNOS protein: reduced in a dose dependent manner
IL-1beta; 2.5 μM
  IL-1beta mRNA expression, Fold (value compared with a negative group): 10.41 ± 1.09 Fold
  IL-1beta mRNA expression, Inhibition ratio (IR) compared with LPS treatment group: 37.69%
IL-1beta; 5 μM
  IL-1beta mRNA expression, Fold (value compared with a negative group): 5.72 ± 0.24 Fold
  IL-1beta mRNA expression, Inhibition ratio (IR) compared with LPS treatment group: 65.75%
IL-1beta; 10 μM
  IL-1beta mRNA expression, Fold (value compared with a negative group): 2.56 ± 0.14 Fold
  IL-1beta mRNA expression, Inhibition ratio (IR) compared with LPS treatment group: 84.68%
IL-1beta; 20 μM
  IL-1beta mRNA expression, Fold (value compared with a negative group): 1.70 ± 0.59 Fold
  IL-1beta mRNA expression, Inhibition ratio (IR) compared with LPS treatment group: 89.85%
IL-1beta; [3]
  expressed level of mRNA of IL-1beta: significantly decreased in a dose dependent manner
[1]; 2.5 μM, 24 hours, vs negative control 0.2% DMSO, read-out: RAW264.7 cell viability (%, mean ± variation)
  viability at 24 h, 2.5 µM: 99.6 ± 3.66%
[1]; 5 μM, 24 hours, vs negative control 0.2% DMSO, read-out: RAW264.7 cell viability (%, mean ± variation)
  viability at 24 h, 5 µM: 99.3 ± 5.68%
[1]; 10 μM, 24 hours, vs negative control 0.2% DMSO, read-out: RAW264.7 cell viability (%, mean ± variation)
  viability at 24 h, 10 µM: 98.2 ± 3.28%
[1]; 20 μM, 24 hours, vs negative control 0.2% DMSO, read-out: RAW264.7 cell viability (%, mean ± variation)
  viability at 24 h, 20 µM: 94.7 ± 3.03%
[1]; 40 μM, 24 hours, vs negative control 0.2% DMSO, read-out: RAW264.7 cell viability (%, mean ± variation)
  viability at 24 h, 40 µM: 97.2 ± 7%
[1]; 80 μM, 24 hours, vs negative control 0.2% DMSO, read-out: RAW264.7 cell viability (%, mean ± variation)
  viability at 24 h, 80 µM: 95.1 ± 2.73%
[1]; at less than 80 μM
  viability at 24 h: > 95%
RAW264.7 cell
  cytotoxicity in RAW264.7 cell: did not show cytotoxicity
[2]
  LD50 at 14 days: > 5000 mg/kg
TNF-alpha; 2.5 μM
  TNF-alpha mRNA expression, Fold (value compared with a negative group): 9.60 ± 3.33 Fold
  TNF-alpha mRNA expression, Inhibition ratio (IR) compared with LPS treatment group: 14.34%
TNF-alpha; 5 μM
  TNF-alpha mRNA expression, Fold (value compared with a negative group): 5.34 ± 3.27 Fold
  TNF-alpha mRNA expression, Inhibition ratio (IR) compared with LPS treatment group: 52.39%
TNF-alpha; 10 μM
  TNF-alpha mRNA expression, Fold (value compared with a negative group): 2.72 ± 0.99 Fold
  TNF-alpha mRNA expression, Inhibition ratio (IR) compared with LPS treatment group: 75.69%
TNF-alpha; 20 μM
  TNF-alpha mRNA expression, Fold (value compared with a negative group): 1.49 ± 0.77 Fold
  TNF-alpha mRNA expression, Inhibition ratio (IR) compared with LPS treatment group: 86.70%
TNF-alpha; [3]
  expressed level of mRNA of TNF-alpha: significantly decreased in a dose dependent manner
